# Results taken from patent US20230140290A1, “SALICYLAMIDE DERIVATIVES AND RELATED METHODS OF MAKING” (THE BOARD OF REGENTS OF THE UNIVERSITY OF TEXAS SY, priority 2020, published 2023).
# Columns and labels:
# Assay type in all cases: cell-based, HAdV-5
# [1] = tested on: HAdV5-GFP; assay: Entry assay (HAdV5-mediated GFP expression); conditions: for inhibition at 50 µM: read-out: (%) Inhibition Entry Assay (50 μM)
# Summary of the method: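 Human A549 cells (3×10^5/well) infected with HAdV5-GFP at 2000 vp/cell with compounds at 50 μM or in dose-response, in triplicate. Incubation 48 h at 37° C., 5% CO2. Standard infection curve from 2-fold virus dilutions without compound run in parallel.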
# [2] = tested on: HAdV5-GFP; assay: Plaque assay (inhibition of HAdV plaque formation); conditions: for Selectivity index (SI): ratio of CC50 to IC50 in plaque assay; for inhibition at 10 µM: read-out: Plaque Assay (%) Inhibition (10 μM); for IC50: read-out: Plaque Assay IC50 (μM), HAdV5-GFP, low MOI, 293β5 cell line
# Summary of the method: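 Compounds were present in the post-infection mixture at 10 μM, or at 10 to 0.3 μM for dose-response. Infection used low MOI HAdV5-GFP (0.06 vp/cell) on 80-90% confluent cells, 2 h rocking at 37° C, then a PBS wash.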
# [3] = tested on: wild-type HAdV5; assay: Nuclear-associated HAdV genomes (real-time PCR)
# [4] = tested on: wild-type HAdV5; assay: HAdV DNA quantification by real-time PCR (DNA replication); conditions: 24 h
# Experimental: DNA Quantification by Real-Time PCR. […] Infected cells were incubated 24 h at 37° C. in 500 μL of complete DMEM containing 25 μM of either compounds or the same volume of DMSO (positive control). All samples were done in duplicate. After 24 h of incubation at 37° C., DNA was purified from the cell lysate with the QIAamp DNA Mini Kit (QIAGEN, Valencia, Calif.) following the manufacturer's instructions. TaqMan primers and probes for a common region of the HAdV5 were designed with the GenScript Real-Time PCR (TaqMan) Primer Design software (GenScript). […] Real-time PCR mixtures consisted of 9.5 μL of the purified DNA, AQ1 and AQ2 at a concentration of 200 nM each and Probe at a concentration of 50 nM in a total volume of 25 μL. The PCR cycling protocol was 95° C. for 3 min followed by 40 cycles of 95° C. for 10 s and 60° C. for 30 s. Human glyceraldehyde-3-phosphate dehydrogenase (GAPDH) gene was used as internal control. Oligonucleotides sequences for GAPDH and conditions were those previously reported by Henke-Gendo et al. (2012).
# For quantification, gene fragments from hexon, and GAPDH were cloned into the pGEM-T Easy vector (Promega) and known concentrations of template were used to generate a standard curve in parallel for each experiment. All assays were performed in thermal cycler LightCycler® 96 System (Roche).
# (§1) HAdV DNA Quantification by Real-Time PCR. […] All samples were done in duplicate. After 24 h of incubation at 37° C., DNA was purified from the cell lysate with the E.Z.N.A.® Tissue DNA Kit (Omega Bio-tek, Norcross, Ga.) following the manufacturer's instructions. TaqMan primers and probes for a common region of the HAdV5 were designed with the GenScript Real-Time PCR (TaqMan) Primer Design software (GenScript). […] Real-time PCR mixtures consisted of 9.5 μL of the purified DNA, AQ1 and AQ2 at a concentration of 200 nM each and Probe at a concentration of 50 nM in a total volume of 25 μL. The PCR cycling protocol was 95° C. for 3 min followed by 40 cycles of 95° C. for 10 s and 60° C. for 30 s. Human glyceraldehyde-3-phosphate dehydrogenase (GAPDH) gene was used as internal control. Oligonucleotides sequences for GAPDH and conditions were those previously reported by Henke-Gendo et al. (2012).
# as §1, with “DNA” for “HAdV DNA”
# [5] = A549, read-out: IC50 Entry Assay (μM), HAdV5-GFP, high MOI, A549 cell line
# [6] = FIG. 3, 45 min post infection, concentrations by CC50 (2-50 μM)
# [7] = FIG. 4, concentrations by CC50 (2-50 μM)
SMILES,"inhibition at 50 µM ([1]; A549, 48 h) [%]","IC50 [1, 5] [µM]",Selectivity index (SI) [2],inhibition at 10 µM [2] [%],IC50 [2] [µM],"amount of nuclear-associated HAdV genomes versus DMSO [3, 6]","inhibition of HAdV-5 DNA replication (qPCR) [4, 7]",IC50 ([1]; {}) [µM],"amount of nuclear-associated HAdV genomes versus DMSO ([3]; FIG. 5A, 45 min post-infection, 10-fold plaque IC50)","inhibition of HAdV-5 DNA replication (qPCR) ([4]; FIG. 6A, 10-fold plaque IC50)","EC50 ([1]; A549, 48 h, read-out: EC50 (entry assay, as worded in text)) [µM]",EC50 ([2]; read-out: EC50 (plaque assay)) [µM],"inhibition of accessibility of HAdV DNA to the nucleus ([3]; FIG. 5B, 45 min post-infection, 10-fold plaque IC50)",inhibition at 7.8 µM ([4]; read-out: inhibition of HAdV-5 DNA replication (qPCR)) [%]
"O=C(Nc1ccc([N+](=O)[O-])cc1F)c1cc(Cl)ccc1O [Compound 11, 5-Chloro-N-(2-fluoro-4-nitrophenyl)-2-hydroxybenzamide]",92.4 ± 0.2,1.57 ± 0.97,218.2,98.7 ± 1.9,0.05,partially inhibited,low inhibition,–,–,–,–,–,–,–
"O=C(Nc1cc(F)cc(C(F)(F)F)c1)c1cc(Cl)ccc1O [Compound 17, 5-Chloro-N-(3-fluoro-5-(trifluoromethyl)phenyl)-2-hydroxybenzamide]",100,2.23 ± 0.58,666.7,100,–,no significant differences,low inhibition,–,–,–,–,–,–,–
"CC(C)[C@H](NC(=O)c1cc(Cl)ccc1O)C(=O)Nc1ccc([N+](=O)[O-])cc1Cl [Compound 58, (S)-5-Chloro-N-(1-((2-chloro-4-nitrophenyl)amino)-3-methyl-1-oxobutan-2-yl)-2-hydroxybenzamide]",81.8,11.2,444.4,100,–,no significant differences,low inhibition,–,–,–,–,–,–,–
"O=C(N[C@H](Cc1ccccc1)C(=O)Nc1ccc([N+](=O)[O-])cc1Cl)c1cc(Cl)ccc1O [Compound 60, (R)-5-Chloro-N-(1-((2-chloro-4-nitrophenyl)amino)-1-oxo-3-phenylpropan-2-yl)-2-hydroxybenzamide]",68.6,9.7,259.7,100,0.3,partially inhibited,significant (p≤0.0001) inhibitory activity,–,–,–,–,–,–,–
"CC1(Nc2ccc(NC(=O)c3cc(Cl)ccc3O)c(Cl)c2)CCCC1 [Compound 87, 5-Chloro-N-(2-chloro-4-((1-methylcyclopentyl)amino)phenyl)-2-hydroxybenzamide]",85.4,15.2 to 30.8,580.7,100,0.27,–,–,15.2 ± 5.1,partially inhibited,moderate inhibition,–,–,–,–
"O=C(NCC1CCCCC1)c1cc(Cl)ccc1O [Compound 161, 5-Chloro-N-(cyclohexylmethyl)-2-hydroxybenzamide]",98.6 ± 14.8,12.3 ± 4.8,> 100,100,–,–,–,–,–,–,12.3,0.78,more than 99%,50
